≈ marks a conversion by molar mass, not a printed value.
Legend:
Type in all cases: cell-based
A. baumannii 17978 = assay: MIC; details: A. baumannii ATCC 17978; in words
Protocol: (§1) MICs of compounds in each strain were determined in cation-adjusted Mueller-Hinton II (MHII) broth or MHII agar according to the Clinical and Laboratory Standards Institute protocol (CLSI 2006). To measure the effect of protein binding on activity, MIC assays were performed in the presence of 50% heat-inactivated human serum. The serum killing assay was performed as described previously ([43]). FOR assays and growth on plates containing G0790 were always performed on MHII agarose plates.

E. coli CFT073 imp4213 = assay: MIC; details: in words
Protocol: as §1

E. coli CFT073(pBADlspA) = assay: MIC; details: in words
Protocol: as §1

[1] = test system: G0790-resistant E. coli CFT073; assay: MIC against G0790-resistant CFT073 strains
Protocol: as §1
Frequencies of resistance (FORs) of G0790 were determined for E. coli CFT073, E. cloacae (ATCC 13047), and K. pneumoniae (ATCC 700603) as previously published ([70]). To determine the FOR, 3 to 4 colonies of the strain to be tested were picked from a fresh plate and diluted to an optical density at 600 nm (OD600) of 0.00001 in 1 ml of cation-adjusted MHBII. Ten independent 5-ml cultures in MHBII were prepared by inoculating 5 μl (approximately 1 × 10^3 CFU) and incubated at 37°C for 18 h. The bacteria were pelleted by centrifugation at 4000 × g at 4°C for 15 min and resuspended in 0.5 ml fresh MHBII. Two hundred fifty microliters of the bacterial suspension was plated evenly on MHII agarose plates containing globomycin or G0790 at a final concentration of 4× and 8× MIC. In parallel, CFU from each independent culture was measured by spotting 10-fold serial dilutions on MHII agar plates and incubated at 37°C for 18 h. Colonies were counted at days 1, 2, and 3 postinoculation. FOR was calculated as the ratio of the total number of resistant colonies relative to the total CFU plated. For strains that had no resistant colonies growing on plates, the p0 method was used to calculate the FOR (FOR = m/total CFU plated, where m = −ln p0 and p0 is the proportion of cultures with no mutants; 0.7 ≥ p0 ≥ 0.1), as described previously ([71]). Colonies were picked and resuspended in 30 μl MHBII broth medium, and 10 μl was plated on an MHII agar plate containing G0790 to be used to determine the MIC. Of the remaining 20 μl, half was used to inoculate 1.5 ml MHBII broth medium containing G0790 and grown at 37°C for 18 h to generate cell lysates for Western blot analysis, isolate genomic DNA (gDNA) for whole-genome sequencing, and for frozen glycerol stocks.

CCCCCC[C@H]1OC(=O)CNC(=O)[C@H]([C@H](C)O)NC(=O)[C@H](CN)NC(=O)[C@H](C2CCCCC2)NC(=O)[C@H](CCC)N(C)C(=O)[C@@H]1C [G0790] was tested, and the “MIC against A. baumannii compared to GBM” value (A. baumannii 17978) was “modestly decreased MIC”, the “Activity against CFT073 imp4213 relative to GBM” value (E. coli CFT073 imp4213) was “more active than GBM” and the “Effect of LspA overexpression or lpp deletion on inhibition of WT CFT073 and CFT073 imp4213” value (E. coli CFT073(pBADlspA)) was “decreased upon LspA overexpression or lpp deletion”. It also gave an MIC ([1]; CFT073 4×-R1, ISEc10-istB insertion (3′ of lpp)) of 19.5 µg/mL (≈ 29.2 µM), an MIC ([1]; CFT073 4×-R2, Lpp p.Asp54fs, Non-lspA_GA) of 19.5 µg/mL (≈ 29.2 µM) and an MIC ([1]; CFT073 4×-R3, lspA_GA) of 19.5 µg/mL (≈ 29.2 µM). The MIC ([1]; CFT073 4×-R4, lpp deletion, Non-lspA_GA) was 19.5 µg/mL (≈ 29.2 µM), the MIC ([1]; CFT073 4×-R6, ISEc10-istB insertion (3′ of lpp)) was 39 µg/mL (≈ 58.5 µM) and the MIC ([1]; CFT073 4×-R7, ISEc10-istB insertion (3′ of lpp), Non-lspA_GA) was 39 µg/mL (≈ 58.5 µM). For the same molecule, the MIC ([1]; CFT073 4×-R9, lpp deletion) was 19.5 µg/mL (≈ 29.2 µM), the MIC ([1]; CFT073 4×-R10, lspA_GA) was 19.5 µg/mL (≈ 29.2 µM) and the MIC ([1]; CFT073 8×-R1, lspA_GA) was 19.5 µg/mL (≈ 29.2 µM). The MIC ([1]; CFT073 8×-R3, 5′ lpp deletion, Non-lspA_GA) was 39 µg/mL (≈ 58.5 µM), the MIC ([1]; CFT073 8×-R4, lpp deletion) was 39 µg/mL (≈ 58.5 µM) and the MIC ([1]; CFT073 8×-R5, ISEc10-istB insertion (5′ of lpp), lspA_GA) was 39 µg/mL (≈ 58.5 µM). For the same molecule, the MIC ([1]; CFT073 8×-R6, lpp deletion, Non-lspA_GA) was 19.5 µg/mL (≈ 29.2 µM).
